The test system of one data set is E. coli (ATCC 8739). It counts as cell-based, Escherichia coli. The conditions noted are these: ATCC 8739, 24 h. The method, then: (§1) To assess the antimicrobial activity of t-DPH1 and its designed analogues, MIC and MBC assays were conducted. Seven microorganism strains were used in the assay: Gram-positive bacteria S. aureus (ATCC 6538), E. faecalis (NCTC 12697) and MRSA (NCTC 12493); Gram-negative bacteria E. coli (ATCC 8739), P. aeruginosa (ATCC 9027) and K. pneumoniae (ATCC 43816); yeast, C. albicans (ATCC 10231).
(§2) For MIC assay, the microorganisms were initially incubated in Mueller-Hinton broth (MHB) (for bacteria) or yeast extract peptone dextrose broth (YPD-B) (for yeast) overnight and sub-cultured to achieve their respective logarithmic growth phases (5 × 10^5 CFU/mL). Then, 99 μL of each microorganism and 1 μL of the tested peptide solution were incubated in a 96-well plate. The final on-plate peptide concentrations were from 1 to 512 μM. Except for the peptide group, four other groups were set when conducting this experiment, including a negative control group (PBS), a vehicle control group (1% DMSO), a positive control group (bacteria: 20 μg/mL norfloxacin; yeast: amphotericin B) and a blank control group (MHB or YPD-B with no microorganism culture). Thus, the MIC value represents the lowest concentration of peptides at which no visible growth of the microorganism after 24 h incubation. For the MBC assay, 10 μL of the medium from each clear well was inoculated onto a Mueller–Hinton agar (MHA) (for bacteria) or yeast extract peptone dextrose agar (YPD-A) (for yeast) plate and incubated for 24 h for measurement MBC values.

In data set [1] the test system is K. pneumoniae (ATCC 43816). It counts as cell-based, Klebsiella pneumoniae. The conditions noted are these: ATCC 43816, 24 h. The method, then:
as §1, §2

Data set [2] relates to Methicillin-resistant Staphylococcus aureus (MRSA) (NCTC 12493). It counts as cell-based. The conditions noted are these: NCTC 12493, 24 h. As to the method:
as §1, §2

The subject of data set [3] is Enterococcus faecalis (E. faecalis) (NCTC 12697). It counts as cell-based. The conditions noted are these: NCTC 12697, 24 h. The method, then: as §1, §2
In another data set the test system is C. albicans (ATCC 10231). It counts as cell-based, Candida albicans. The conditions noted are these: ATCC 10231, 24 h. As to the method: as §1, §2
A further data set relates to S. aureus (ATCC 6538). It counts as cell-based, Staphylococcus aureus. The conditions noted are these: ATCC 6538, 24 h. The method, then: as §1, §2
Data set [4] has as its system NCI-H838 (human non-small cell lung cancer). It counts as cell-based. The conditions noted are these: 24 h. The method, then:
(§3) The MTT assay was conducted to verify the proliferation inhibitory effect of t-DPH1 and its analogues. Human cancer cell lines (NCI-H838 (ATCC® CRL-5844, human non-small cell lung cancer)), (NCI-H157(ATCC® CRL-5802, human non-small cell lung cancer cell line)), (U251MG (ECACC 09063001, human neuronal glioblastoma cancer cell line)), (PC-3 (ATCC® CRL-1435TM, human prostate carcinoma cancer cell line)) and normal human cell lines (HMEC-1(ATCC®-CRL-3243, human microvascular endothelial cell line)) and (HaCaT (ATCC®-PCS-200-011, human keratinocyte cell)) were purchased from the American Type Culture Collection (ATCC, Manassas, VA, USA) and the European Collection of Cell Cultures (ECACC, Sallisbury, UK) for this assay. For the MTT assay, 8000 cells/per well were seeded in the 96-well plate for 24 h. Subsequently, experiment groups were dosed with fresh serum-free medium containing different concentrations of peptides (100 μM to 10 nM) in 3 replicates. Negative control groups and positive control groups were dosed with the fresh serum-free medium containing equal amounts of PBS, and 0.1% (w/v) Triton X-100, respectively. Then the 96-well plate was incubated at 37 °C with 5% CO2 for 24 h. After, ten microliters of MTT solution (5 mg/mL) (Sigma-Aldrich UK Ltd., Gillingham, UK) were added to each well and incubated in a dark environment for two hours. Then, the solution in each well was removed and 100 μL of DMSO were added and then the plate was shaken for 10 min on a shaking incubator before detecting the OD value by use of a Synergy HT plate reader (BioTek, Minneapolis, MN, USA) at λ = 570 nm.

Data set [5] has as its system NCI-H157 (human non-small cell lung cancer cell line). It counts as cell-based. The conditions noted are these: 24 h. As to the method:
as §3

Data set [6] relates to HaCaT (human keratinocyte cell). It counts as cell-based. The conditions noted are these: 24 h. As to the method: as §3
The test system of data set [7] is U251MG (human neuronal glioblastoma cancer cell line). It counts as cell-based. The conditions noted are these: 24 h. As to the method:
as §3

The subject of data set [8] is PC-3 (human prostate carcinoma cancer cell line). It counts as cell-based. The conditions noted are these: 24 h. The method, then: as §3
For data set [9], the system named is HMEC-1 (human microvascular endothelial cell line). It counts as cell-based. The conditions noted are these: 24 h. As to the method: as §3
The test system of data set [10] is PC-3, H838, H157 and U251MG cancer cell lines. It counts as cell-based, human. The conditions noted are these: 24 h. The method, then:
as §3, with “Then the 96-well plate was incubated at 37 °C with 5% CO2 for 24 h. After, ten microliters of MTT solution (5 mg/mL) (Sigma-Aldrich UK Ltd., Gillingham, UK) were added to each well and incubated in a dark environment for two hours.” left out

Data set [11] deals with P. aeruginosa (ATCC 9027). It counts as cell-based, Pseudomonas aeruginosa. The conditions noted are these: ATCC 9027, 24 h. As to the method:
as §1, §2

In a further data set the test system is horse red blood cells. It counts as cell-based. As to the method: The haemolysis assay was performed by mixing 2% (v/v) fresh defibrinated horse blood (TCS Biosciences Ltd., Buckingham, UK) with peptides in different concentrations. Before the test, horse blood was rinsed with PBS three to four times until the supernatant was clear. Next, peptide solutions (from 100 μM to 1 nM) were incubated with the suspension of red blood cells at 37 °C for two hours. The blood cells treated with 1% Triton-X 100 were used as the positive control, and the blood cells treated with PBS were used as the negative control. After incubation, 100 μL of the supernatant from each sample were transferred to a new 96-well plate, and the OD value of each well was measured with a Synergy HT plate reader (BioTek, Minneapolis, MN, USA) with the absorbance set to 570 nm.

Values after ≈ are worked out from the molar mass of the structure shown. Where a SMILES comes first, the peptide text is derived from it.

As for `CC[C@H](C)[C@H](NC(=O)[C@H](CCCCN)NC(=O)[C@H](CO)NC(=O)[C@H](Cc1c[nH]c2ccccc12)NC(=O)[C@H](CC(C)C)NC(=O)CN)C(=O)N[C@@H](CCCCN)C(=O)N[C@@H](CC(N)=O)C(=O)N[C@H](C(=O)N[C@@H](C)C(=O)N[C@@H](C)C(=O)N[C@@H](C)C(=O)N[C@@H](C)C(=O)NCC(=O)N[C@@H](CCCCN)C(=O)N[C@@H](C)C(=O)N[C@@H](C)C(=O)N[C@@H](CC(C)C)C(=O)NCC(=O)N[C@@H](C)C(=O)N[C@@H](CC(C)C)C(N)=O)C(C)C` [t-DPH1] (H-GLWSKIKNVAAAAGKAALGAL-NH2), the MBC in the data set on E. coli (ATCC 8739) worked out at 4 µM (≈ 8.04 µg/mL); in data set [1] it was 16 µM (≈ 32.2 µg/mL); in data set [2] it was 32 µM (≈ 64.3 µg/mL); in [3], 256 µM (≈ 514 µg/mL); in the data set with C. albicans (ATCC 10231) it was 128 µM (≈ 257 µg/mL); in the data set on S. aureus (ATCC 6538), 16 µM (≈ 32.2 µg/mL). Also, the MBC in [11] stood at 32 µM (≈ 64.3 µg/mL). Also, the MIC against E. coli (ATCC 8739) amounted to 2 µM (≈ 4.02 µg/mL); in data set [1], 8 µM (≈ 16.1 µg/mL); in data set [2] it was 16 µM (≈ 32.2 µg/mL); in data set [3] it was 128 µM (≈ 257 µg/mL); with C. albicans (ATCC 10231) it was 64 µM (≈ 129 µg/mL); in the data set with S. aureus (ATCC 6538), 8 µM (≈ 16.1 µg/mL). Further, the MIC in data set [11] turned out to be 16 µM (≈ 32.2 µg/mL). Further, the IC50 in data set [4] is 23.5 µM; in data set [5], 10.2 µM; in data set [7], 34.2 µM; in [8], 14.7 µM; in [10], 10.2 to 34.2 µM. Further, the “IC50 against HaCaT” value in data set [6] turned out to be 175.6 µM. Further, the “IC50 against HMEC-1” value in data set [9] amounted to 29.85 µM. Further, the haemolysis entry with horse red blood cells (100 µM) is “over 50%”. In addition, in the data set on horse red blood cells (red cells of horse), the 50% haemolytic concentration (HC50) is 106.4 µM.

For the origin of these results see PMC8698721, “Exploration of the Structure–Function Relationships of a Novel Frog Skin Secretion-Derived Bioactive Peptide, t-DPH1, through Use of Rational Design, Cationicity Enhancement and In Vitro Studies” (Antibiotics, 2021).
